# Structures can show the parent of a compound that is named as a salt.
# Target: T1, mineralocorticoid receptor (MR) (Homo sapiens, UniProt P08235)
# T1 construct: expressed in transfected cells; host or cells: Huh7 (human liver cells)
# T1 sequence (P08235 726-964 limits assumed): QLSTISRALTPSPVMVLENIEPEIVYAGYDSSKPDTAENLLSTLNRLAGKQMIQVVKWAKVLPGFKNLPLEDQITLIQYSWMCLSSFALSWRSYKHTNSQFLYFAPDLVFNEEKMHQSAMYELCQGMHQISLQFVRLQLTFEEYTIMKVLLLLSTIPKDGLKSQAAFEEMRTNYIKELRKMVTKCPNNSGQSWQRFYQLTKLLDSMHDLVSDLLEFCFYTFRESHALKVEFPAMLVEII
# Assay: Cell-based Gal4 response element-controlled luciferase reporter assay (MR antagonism)
# Conditions: Huh7 human liver cells transfected with Gal4 DBD-MR LBD fusion and luciferase reporter; block of agonist-induced activation; overnight incubation
# Source text: Method 1: Cell-based Gal4 Response Element-controlled Luciferase Reporter Assay
# An in vitro assay can be used to evaluate mineralocorticoid receptor (MR) antagonism by a test compound. […] An agonist of the receptor can bind to and activate the receptor LBD, which activate the expression of the Gal4 response element containing luciferase reporter gene. Antagonists can compete for binding to the receptor LBDs and decrease the transcription activity of the reporter gene. Measurement of luciferase activity allows quantitative determinations of the reporter transcription in the presence of either agonists or agonists and antagonists in combination. β-galactosidase activity, which is unaffected by ligand, is used to normalize the transfection efficiency in the cell population.
# Huh7 cells were plated in RPMI1640+10% fetal bovine serum (Invitrogen Corporation, San Diego, Calif.), at 10,000 cells per well in 96-well tissue culture dishes for approximately 24 hours. Cells were then transfected using FuGENE™ 6 Transfection Reagent according to manufacturers' instructions (Roche Molecular Biochemicals, Indianapolis, Ind.). Approximately 20 hours after transfection, media were removed. Cells were washed once with PBS and treated (n=6/group) with agonist for each receptor (all chemicals from Sigma, St. Louis, Mo.), and with compounds. Agonist concentrations represent 70-80% of full activation of each receptor.
# Compounds were dissolved in DMSO at 10 mM and diluted to final concentrations in phenol red-free media that contained 10% charcoal- and dextran-stripped serum (Life Technologies, Gathersburg, Md.). Following overnight incubation (18-20 hours) with compounds, the medium was removed and replaced with 100 μL per well of PBS and 100 μL of Steady-Glo™ lysis buffer with luciferase substrate (Promega Corporation, Madison, Wis.). After a 30-minute incubation to completely lyse the cells, 100 μL of the lysate was transferred to a black, Dynatech Microfluor assay plates (Dynex Corporation, Chantilly, Va.) to measure luciferase activity. The plate was sealed with TopSeal self-adhesive film, dark-adapted for 5 minutes, then counted in a TopCount Plate Reader (Packard Instrument Company, Meriden, Conn.) in single photon counting mode. The remaining lysate was used for determination of β-galactosidase activity. In a clear 96-well assay plate, 100 μL of cell lysate was added to 100 μL β-galactosidase assay buffer per well. The assay buffer consisted of 60 mM Na2HPO4, 40 mM NaH2PO4, 10 mM KCl, 1 mM MgSO4, 50 mM β-mercaptoethanol, and 2.5 mg/mL ONPG, the latter two reagents were added just prior to assay (all chemicals from Sigma). The reaction was allowed to proceed until a distinct yellow color developed. Reactions were stopped by the addition of 100 μL per well 1 M Na2CO3 and plates were read at 420 nm in Victor-2 (Perkin Elmer Life Sciences, Boston, Mass.). Values (relative luciferase activity) for each sample were expressed as a ratio of luciferase activity to OD420β-galactosidase activity measured in arbitrary units for each well. […] “b” is the slope, “c” is the IC50 or EC50. “x” is the concentration of the compound and “y” the activity at that concentration.
row,IC50 [µM],SMILES
1,0.17,"N#Cc1ccc(N2N=C3c4ccc(C(=O)O)cc4CCC3C2c2ccc(F)cc2)cc1C(F)(F)F (racemic) [Example 9, 2-[4-cyano-3-(trifluoromethyl)phenyl]-3-(4-fluorophenyl)-3,3a,4,5-tetrahydro-2H-benzo[g]indazole-7-carboxylic acid]"
2,0.0172,"Cc1cc(N2N=C3c4ccc(C(=O)O)cc4CC[C@@H]3[C@@H]2c2ccc(F)cc2)ccc1C#N [Example 7, (3R,3aR)-2-(4-cyano-3-methylphenyl)-3-(4-fluorophenyl)-3,3a,4,5-tetrahydro-2H-benzo[g]indazole-7-carboxylic acid]"
3,0.906,"N#Cc1ccc(N2N=C3c4ccc(C(=O)O)cc4OCC3C2C2CCCC2)cc1 (racemic) [Example 70, 2-(4-cyanophenyl)-3-cyclopentyl-2,3,3a,4-tetrahydrochromeno[4,3-c]pyrazole-7-carboxylic acid]"
4,1.1,"N#Cc1ccc(N2N=C3c4ccc(O)cc4CCC3C2c2ccc(F)cc2)cc1 (racemic) [Example 90, (±)-4-((3RS,3aSR)-3-(4-fluorophenyl)-7-hydroxy-3,3a,4,5-tetrahydrobenzo[g]indazol-2-yl)benzonitrile]"
5,0.003,"Cc1ccc([C@H]2[C@H]3CCc4cc(C(=O)NCCS(C)(=O)=O)ccc4C3=NN2c2ccc(C#N)c(Cl)c2)o1 [Example 117, (3R,3aR)-2-(3-chloro-4-cyanophenyl)-3-(5-methyl-2-furyl)-N-[2-(methylsulfonyl)ethyl]-3,3a,4,5-tetrahydro-2H-benzo[g]indazole-7-carboxamide]"
6,0.002,"CS(=O)(=O)CCNC(=O)c1ccc2c(c1)CC[C@H]1C2=NN(c2ccc(C#N)c(Cl)c2)[C@H]1c1ccc(F)cc1 [Example 95, (3R,3aR)-2-(3-chloro-4-cyanophenyl)-3-(4-fluorophenyl)-N-(2-(methylsulfonyl)ethyl)-3,3a,4,5-tetrahydro-2H-benzo[g]indazole-7-carboxamide]"
7,0.305,"COc1cc(N2N=C3c4ccc(C(=O)O)cc4CC[C@H]3[C@H]2C2CCCC2)ccc1C#N [Example 27, (3R,3aS)-2-(4-cyano-3-methoxyphenyl)-3-cyclopentyl-3,3a,4,5-tetrahydro-2H-benzo[g]indazole-7-carboxylic acid]"
8,0.929,"N#Cc1ccc(N2N=C3c4ccc(C(=O)O)cc4CCC3C2c2ccc(F)cc2)cn1 (racemic) [Example 14, 2-(6-cyanopyridin-3-yl)-3-(4-fluorophenyl)-3,3a,4,5-tetrahydro-2H-benzo[g]indazole-7-carboxylic acid trifluoroacetate]"
9,0.302,"N#Cc1ccc(N2N=C3c4ccc(C(=O)O)cc4OC[C@@H]3[C@@H]2c2ccc(F)cc2)cc1Cl [Example 56, (3R,3aR)-2-(3-chloro-4-cyanophenyl)-3-(4-fluorophenyl)-2,3,3a,4-tetrahydrochromeno[4,3-c]pyrazole-7-carboxylic acid]"
10,3.7,"N#Cc1ccc(N2N=C3c4cc(C(=O)O)ccc4CCC3C2c2ccc(F)cc2)cc1Cl (racemic) [Example 5, 2-(3-chloro-4-cyanophenyl)-3-(4-fluorophenyl)-3,3a,4,5-tetrahydro-2H-benzo[g]indazole-8-carboxylic acid]"
11,> 1,"N#Cc1ccc(N2N=C3c4ccc(O)cc4CC[C@H]3[C@H]2c2ccc(F)cc2)cc1Cl [Example 88, 2-chloro-4-((3S,3aS)-3-(4-fluorophenyl)-7-hydroxy-3,3a,4,5-tetrahydrobenzo[g]indazol-2-yl)benzonitrile]"
12,0.013,"Cc1cc(N2N=C3c4ccc(C(=O)O)cc4OC[C@@H]3[C@@H]2C2=CCCC2)ccc1C#N (racemic) [Example 77, (±)-(3RS,3aRS)-2-(4-cyano-3-methylphenyl)-3-cyclopentenyl-2,3,3a,4-tetrahydrochromeno[4,3-c]pyrazole-7-carboxylic acid]"
13,2.88,"N#Cc1ccc(N2N=C3c4ccc(C(=O)O)cc4CC[C@H]3[C@H]2C2CCCC2)cc1 [Example 20, (3R,3aS)-2-(4-cyanophenyl)-3-cyclopentyl-3,3a,4,5-tetrahydro-2H-benzo[g]indazole-7-carboxylic acid]"
